Data from patent US10583092B2, “Therapeutic nanoparticles comprising a protonatable nitrogen therapeutic agent and methods of making and using same” (Pfizer Inc., priority 2014, dated 2020).

Assay: Solubility of dasatinib in solvents, quantified using HPLC
Assay type: physicochemical
Details: benzyl alcohol doped with oleic acid versus benzyl alcohol
Description: The solubility of dasatinib in benzyl alcohol, ethyl acetate, and mixtures of oleic acid and benzyl alcohol were quantified using HPLC.

improvement of solubility: 2-3 fold
Structure (SMILES): Cc1nc(Nc2ncc(C(=O)Nc3c(C)cccc3Cl)s2)cc(N2CCN(CCO)CC2)n1 [dasatinib]
